Structures can show the parent of a compound that is named as a salt. Where two headings read alike, the source gives them in different places.
How the values were obtained:
mice [1] = assay: animal or person; format: in vivo; settings: mouse tail flick test; for analgesic activity (in words) / ED50: sc; for ED50: read-out: ED50 (μg/kg, sc)
mice [2] = assay: Hot-plate test (analgesia); format: in vivo, mouse; settings: for ED50: Mus musculus, read-out: ED50 (μg/kg, sc); for ED50 / analgesic activity (in words): sc
Protocol: A test on mice (“hot-plate test”) was carried out as described earlier (E. L. May et al., J. Med. Chem. 2000; 43, 5030-5036).

μ-opioid receptors = target: T1, μ-opioid receptors (Rattus norvegicus, UniProt P33535); assay: Opioid receptor binding studies on rat's brain homogenisates with [3H]DAMGO
T1 construct: from tissue; host or cells: rat brain homogenate

[3] = [3H]DAMGO as radio-ligand, rat's brain homogenisates, read-out: Ki (nM) (μ-receptors)

T1 sequence (P33535 whole entry): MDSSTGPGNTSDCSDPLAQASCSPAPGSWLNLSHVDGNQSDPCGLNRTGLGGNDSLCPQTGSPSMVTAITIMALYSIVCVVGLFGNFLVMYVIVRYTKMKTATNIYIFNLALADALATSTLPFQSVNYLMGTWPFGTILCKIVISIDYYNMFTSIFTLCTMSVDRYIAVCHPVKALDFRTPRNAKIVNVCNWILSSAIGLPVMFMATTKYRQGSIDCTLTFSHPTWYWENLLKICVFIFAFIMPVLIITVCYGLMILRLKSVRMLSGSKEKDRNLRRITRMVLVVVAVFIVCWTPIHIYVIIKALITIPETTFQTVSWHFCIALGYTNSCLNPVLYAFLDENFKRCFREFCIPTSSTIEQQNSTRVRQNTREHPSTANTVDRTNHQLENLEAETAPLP

Row | SMILES | ED50 (mice [1]; subcutaneous application) | ED50 (mice [2]; subcutaneous application) | other results
1 | COc1ccc2c3c1O[C@H]1C(=O)CC[C@@]4(OCCCc5ccccc5)[C@@H](C2)N(CCc2ccccc2)CC[C@]314 [Compound 4, 4,5α-epoxy-3-methoxy-17-(2-phenylethyl)-14β-(3-phenylpropyloxy)morphinan-6-one hydrochloride] | 84 µg/kg | 60 µg/kg | analgesic activity (in words) (mice [1]): somewhat lower analgesic activity; analgesic activity (in words) (mice [2]): somewhat lower analgesic activity
2 | C=CCN1CC[C@]23c4c5ccc(O)c4O[C@H]2C(=O)CC[C@@]3(OCCCc2ccccc2)[C@H]1C5 [Compound 6, 17-allyl-4,5α-epoxy-3-hydroxy-14β-(3-phenylpropyloxy)morphinan-6-one hydrochloride] | 5.6 µg/kg | 5.9 µg/kg | –
3 | O=C1CC[C@@]2(OCCCc3ccccc3)[C@H]3Cc4ccc(O)c5c4[C@@]2(CCN3CC2CCC2)[C@H]1O5 [Compound 7, 17-cyclobutylmethyl-4,5α-epoxy-3-hydroxy-14β-(3-phenylpropyloxy)morphinan-6-one hydrochloride] | 8.2 µg/kg | 3.7 µg/kg | –
4 | O=C1CC[C@@]2(OCCCc3ccccc3)[C@H]3Cc4ccc(O)c5c4[C@@]2(CCN3CC2CC2)[C@H]1O5 [Compound 8, 17-cyclopropylmethyl-4,5α-epoxy-3-hydroxy-14β-(3-phenylpropyloxy)morphinan-6-one hydrochloride] | 3.2 µg/kg | 2.3 µg/kg | Ki (μ-opioid receptors; [3]): 0.34 nM
5 | O=C1CC[C@@]2(OCCCc3ccccc3)C3Cc4ccc(O)c5c4[C@@]2(CCN3CC2CCCO2)[C@H]1O5 (stereo partly drawn) [Compound 10, 4,5α-epoxy-17-[2-((R,S)-tetrahydrofuran-2-yl)methyl]-3-hydroxy-14β-(3-phenylpropyloxy)morphinan-6-one hydrochloride] | 7 µg/kg | 1.3 µg/kg | –
6 | CCCN1CC[C@]23c4c5ccc(O)c4O[C@H]2C(=O)CC[C@@]3(OCCCc2ccccc2)[C@H]1C5 [Compound 11, 4,5α-epoxy-3-hydroxy-14β-(3-phenylpropyloxy)-17-propylmorphinan-6-one hydrochloride] | 1.6 µg/kg | 1.7 µg/kg | –
7 | C#CCOc1ccc2c3c1O[C@@]1(C)C(=O)CC[C@@]4(OCCCc5ccccc5)[C@@H](C2)N(C)CC[C@]314.Cl [Compound 17, 4,5α-epoxy-5β,17-dimethyl-14β-[(3-phenylpropyl)oxy]-3-[(prop-2-inyl)oxy]morphinan-6-one hydrochloride] | – | – | ED50 (μg/kg, sc) (mice [1]; subcutaneous application): 21 µg/kg; analgesic activity (in words) (mice [2]): surprisingly high; ED50 (μg/kg, sc) (mice [2]; subcutaneous application): 38 µg/kg; Ki (μ-opioid receptors; [3]): 0.73 nM
8 | COc1ccc2c3c1O[C@@]1(C)C(=O)CC[C@@]4(OCCCc5ccccc5)[C@@H](C2)N(C)CC[C@]314 [Compound 17a, 4,5α-epoxy-3-methoxy-5β,17-dimethyl-14β-[(3-phenylpropyl)oxy]morphinan-6-one] | 4.4 µg/kg | 2.6 µg/kg | melting point: 126 to 128 °C; Ki (μ-opioid receptors): 0.62 nM
9 | CN1CC[C@]23c4c5ccc(O)c4O[C@@]2(C)C(=O)CC[C@@]3(OCCCc2ccccc2)[C@H]1C5 [Compound 17b, 4,5α-epoxy-3-hydroxy-5β,17-dimethyl-14β-[(3-phenylpropyl)oxy]morphinan-6-one hydrobromide] | – | 0.1 µg/kg | Ki (μ-opioid receptors): 0.2 nM
10 | COc1ccc2c(c1OC)[C@]13CCN(C)[C@H](C2)[C@]1(OCCCc1ccccc1)CCC(=O)[C@H]3C [Compound 32, 3,4-dimethoxy-5β,17-dimethyl-14β-[(3-phenylpropyl)oxy]morphinan-6-one hydrochloride] | 14 µg/kg | 22 µg/kg | analgesic activity (in words) (mice [1]): very high analgesic activity; analgesic activity (in words) (mice [2]): somewhat lower analgesic activity
11 | CN1CC[C@]23c4c5cccc4O[C@H]2C(=O)CC[C@@]3(OCCCc2ccccc2)[C@H]1C5 [Compound 53, 4,5α-epoxy-17-methyl-14β-[(3-phenylpropyl)oxy]morphinan-6-one] | 0.4 µg/kg | 3 µg/kg | melting point: 105 to 109 °C

From patent US7655671B2, “Morphinan derivatives, the quaternary ammonium salts thereof substituted in position 14, method for production and use thereof” (priority 2002, dated 2010)
